Data on nine molecules can be found in ChEMBL document CHEMBL1201862, “PubChem BioAssay data set” (2004).

Activity calls are given as the source filed them.

A word on the EC50: it is the concentration giving half of the maximal effect. The term IC50 denotes the concentration that gives 50% inhibition. For orientation: AC50 means the concentration giving half of the maximal activity seen.

One experiment deals with Troponin, cardiac muscle (Homo sapiens, UniProt P19429+P45379+P63316). Nature of the experiment: Fluorescence-based biochemical high throughput dose response assay for activators of the calcium sensitivity of cardiac Regulated Thin Filaments (RTF). [Related pubchem assays (depositor defined):AID493008, AID493018, AID504382, AID504383]. In kind it is protein-complex assay.

For experiment [1], the target named is DNA dC->dU-editing enzyme APOBEC-3A (Homo sapiens, UniProt P31941). The experiment can be described thus: Dose Response confirmation of small molecule APOBEC3A DNA Deaminase Inhibitors via a fluorescence-based single-stranded DNA deaminase assay. [Related pubchem assays (depositor defined):AID493011, AID493024]. It counts as functional.
Experiment [2] addresses DNA dC->dU-editing enzyme APOBEC-3G (Homo sapiens, UniProt Q9HC16). It counts as functional.
A further experiment addresses Ion channel NompC (Danio rerio, UniProt Q7T1G6). Nature of the experiment: Dose response cell-based high-throughput screening assay for agonists of the transient receptor potential channel N1 (TRPN1). [Related pubchem assays (depositor defined):AID1424, AID1448]. It counts as functional.
Another experiment deals with T1, Mucolipin-3 (Homo sapiens, UniProt Q8TDD5).
T1 sequence (Q8TDD5 whole entry): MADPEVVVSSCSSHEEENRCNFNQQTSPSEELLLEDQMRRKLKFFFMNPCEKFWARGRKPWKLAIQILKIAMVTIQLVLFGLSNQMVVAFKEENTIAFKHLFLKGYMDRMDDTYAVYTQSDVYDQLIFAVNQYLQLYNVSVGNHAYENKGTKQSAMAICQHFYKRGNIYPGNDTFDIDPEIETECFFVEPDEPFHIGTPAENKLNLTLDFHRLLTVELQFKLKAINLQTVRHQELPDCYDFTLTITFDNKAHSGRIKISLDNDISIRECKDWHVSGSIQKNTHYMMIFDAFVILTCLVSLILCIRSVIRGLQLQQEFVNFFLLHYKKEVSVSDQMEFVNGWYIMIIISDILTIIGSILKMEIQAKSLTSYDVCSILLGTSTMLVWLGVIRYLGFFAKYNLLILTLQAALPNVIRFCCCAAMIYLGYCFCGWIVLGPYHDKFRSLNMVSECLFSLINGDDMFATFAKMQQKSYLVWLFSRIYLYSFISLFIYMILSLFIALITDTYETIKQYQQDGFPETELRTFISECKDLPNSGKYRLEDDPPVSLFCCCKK
The experiment can be described thus: Fluorescence counterscreen assay for […] agonists: dose response cell-based high-throughput screening assay to identify agonists of the transient receptor potential channel ML3 (TRPML3). [Related pubchem assays: 1424, 1448 ]. It counts as functional. For orientation: The purpose of a counterscreen is to sort out artefacts and off-target activity.

Experiment [3] in a line: alpha-synuclein stem-loop translation blockers – luminescence, H4 neuroglioblastoma cells, dose confirmation, confirmation (AID 2454).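 Note: H4 neuroglioblastoma cells carrying an alpha-synuclein 5'UTR luciferase reporter; potency for inhibition of the luciferase signal.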 In kind it is functional, cell-based.
Another experiment has as its system HT-1080. Nature of the experiment: HT1080 cell viability loss – fluorescence readout (AID 620). It counts as functional, cell-based. The note with it: Homo sapiens.
The nature of experiment [4]: luciferase reporter signal suppression in cells – H4 neuroglioma cells, luminescence, dose response (AID 1990). In kind it is functional, cell-based. In general terms: In a reporter assay the amount or activity of a reporter protein is the signal.
Experiment [5] is described as follows: luciferase reporter signal reduction – luminescence, H4-C neuroglioblastoma cells, dose response (AID 2458).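 Note: H4 neuroglioblastoma cells stably carrying a luciferase reporter gene fusion.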 It counts as functional, cell-based.
A short description of experiment [6]: Luminescence Cell-Based Dose Response HTS to Identify Inhibitors of 5'UTR Stem-Loop Driven Prion Protein mRNA Translation in H4 Neuroglioblastoma Cells. [Related pubchem assays: 1827 (Project Summary), 1813 (Primary HTS)]. It counts as functional.
A short description of experiment [7]: HEK-293T viability loss after treatment – luminescence, T-cell screen hits, cytotoxicity control for TCR NF-kB inhibitor project, dose response (AID 489026).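 Note: cells exposed to compound about 14 hours before the viability readout.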 It counts as functional, cell-based.
The next experiment is described as follows: cells. It counts as functional, cell-based.
Experiment [8] addresses Luciferin 4-monooxygenase (Photinus pyralis, UniProt P08659). Nature of the experiment: Counter Screen for Luciferase-based Assay Positives. [Related pubchem assays: 620, 618, 411 ].
The nature of experiment [9]: alpha-synuclein stem-loop luciferase translation blockers – H4 neuroglioma cells, luminescence, confirmation (AID 1988). In kind it is functional, cell-based.
For experiment [10], the target named is T2, Heat shock factor protein 1 (Mus musculus, UniProt P38532).
T2 sequence (P38532 whole entry): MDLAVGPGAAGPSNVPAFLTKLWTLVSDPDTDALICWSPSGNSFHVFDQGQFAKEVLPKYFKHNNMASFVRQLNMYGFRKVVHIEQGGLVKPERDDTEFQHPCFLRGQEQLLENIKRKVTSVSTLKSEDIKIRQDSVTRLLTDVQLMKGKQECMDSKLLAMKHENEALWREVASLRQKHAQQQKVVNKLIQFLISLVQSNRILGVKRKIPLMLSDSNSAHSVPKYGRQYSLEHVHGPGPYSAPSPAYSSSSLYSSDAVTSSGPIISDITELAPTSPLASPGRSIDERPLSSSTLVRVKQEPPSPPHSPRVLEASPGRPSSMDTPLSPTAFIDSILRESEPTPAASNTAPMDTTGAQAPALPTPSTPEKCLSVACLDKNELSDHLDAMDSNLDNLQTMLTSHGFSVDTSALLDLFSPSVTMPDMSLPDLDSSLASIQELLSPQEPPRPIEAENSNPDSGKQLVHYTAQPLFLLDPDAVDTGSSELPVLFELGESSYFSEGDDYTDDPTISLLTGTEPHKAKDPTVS
The experiment can be described thus: decrease of HSF1-responsive luciferase luminescence – cell-based, NIH3T3, dose retest, confirmation (AID 2382).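 Note: NIH3T3 fibroblasts with HSF1-driven luciferase reporter stressed by proteasome inhibitor MG132; luminescence from HSF1-driven luciferase expression after 8 hours of MG132 stress.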 In kind it is functional.

Experiment [11] deals with E3 ubiquitin-protein ligase Mdm2/Protein Mdm4 (Homo sapiens, UniProt O15151+Q00987). Nature of the experiment: disruption of Mdm2/MdmX protein binding – luminescence detection, dose response (AID 504593). In kind it is functional.
Experiment [12] is described as follows: microbe, parasite or virus in culture. It counts as functional. The note with it: Mycobacterium tuberculosis.
For experiment [13], the target named is DNA damage-inducible transcript 3 protein (Mus musculus, UniProt P35639). It counts as functional, Cricetulus griseus.
Experiment [14] concerns the target T3, Lytic switch protein BZLF1 (Epstein-Barr virus (strain B95-8) (HHV-4) (Human herpesvirus 4), UniProt P03206).
T3 sequence (P03206 whole entry): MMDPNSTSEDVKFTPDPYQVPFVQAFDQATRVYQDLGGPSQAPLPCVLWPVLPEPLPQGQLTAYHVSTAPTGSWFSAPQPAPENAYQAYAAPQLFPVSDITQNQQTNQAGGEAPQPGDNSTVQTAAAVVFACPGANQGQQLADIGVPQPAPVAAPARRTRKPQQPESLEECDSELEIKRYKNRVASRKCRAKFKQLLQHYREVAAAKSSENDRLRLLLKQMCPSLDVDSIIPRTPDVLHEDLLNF
Nature of the experiment: inhibition of BZLF1 ZTA DNA binding – biochemical, fluorescence polarization, Epstein-Barr virus, 1536-well, counter-screen for EBNA-1 inhibitor project, dose response (AID 2377).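 Note: fluorescence polarization of Cy5-labelled ZRE DNA probe bound by purified Zta.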 The arrangement: species or system human gammaherpesvirus 4.

Experiment [15] concerns the target T4, Epstein-Barr nuclear antigen 1 (Epstein-Barr virus (strain B95-8) (HHV-4) (Human herpesvirus 4), UniProt P03211).
T4 sequence (P03211 whole entry): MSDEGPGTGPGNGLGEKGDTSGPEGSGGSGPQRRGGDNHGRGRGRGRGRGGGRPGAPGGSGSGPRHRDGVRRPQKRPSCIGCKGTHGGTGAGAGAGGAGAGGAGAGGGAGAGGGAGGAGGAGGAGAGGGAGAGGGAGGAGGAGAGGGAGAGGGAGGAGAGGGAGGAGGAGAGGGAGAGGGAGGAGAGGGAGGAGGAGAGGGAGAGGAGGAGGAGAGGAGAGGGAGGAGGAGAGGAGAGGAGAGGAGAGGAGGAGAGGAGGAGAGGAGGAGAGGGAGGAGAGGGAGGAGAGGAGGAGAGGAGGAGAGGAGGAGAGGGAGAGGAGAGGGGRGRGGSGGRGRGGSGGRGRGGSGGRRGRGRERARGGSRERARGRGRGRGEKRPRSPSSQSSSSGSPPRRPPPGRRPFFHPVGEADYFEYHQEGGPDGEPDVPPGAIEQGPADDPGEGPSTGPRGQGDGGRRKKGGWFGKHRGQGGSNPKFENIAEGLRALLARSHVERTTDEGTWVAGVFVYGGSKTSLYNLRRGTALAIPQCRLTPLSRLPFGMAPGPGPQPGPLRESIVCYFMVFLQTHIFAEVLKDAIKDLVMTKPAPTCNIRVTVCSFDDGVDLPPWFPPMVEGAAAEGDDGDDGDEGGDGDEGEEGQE
Nature of the experiment: inhibition of EBV nuclear antigen 1 DNA binding – biochemical, fluorescence polarization, 1536-well, dose response (AID 2381).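 Note: fluorescence polarization of a Cy5 DNA probe bound by EBNA-1 protein.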 The arrangement: species or system human gammaherpesvirus 4. On the technique in general: Fluorescence polarisation rises when a labelled molecule tumbles more slowly, as on binding a larger partner.

A further experiment deals with Cytochrome P450 2C19 (Homo sapiens, UniProt P33261). Nature of the experiment: Cytochrome panel assay with activity outcomes. Panel member name: p450-cyp2c19 Compounds with AC50 equal or less than 10 uM are considered active. It counts as functional. The conditions noted are these: read-out: AC50.
Experiment [16] addresses Alkaline phosphatase, placental type (Homo sapiens, UniProt P05187). The experiment can be described thus: human placental alkaline phosphatase inhibition – biochemical, luminescence, confirmation (AID 1512). In kind it is functional.
The target of experiment [17] is Glyceraldehyde-3-phosphate dehydrogenase (Homo sapiens, UniProt P04406).
For experiment [18], the target named is T5, Alkaline phosphatase, tissue-nonspecific isozyme (Homo sapiens, UniProt P05186).
T5 sequence (P05186 whole entry): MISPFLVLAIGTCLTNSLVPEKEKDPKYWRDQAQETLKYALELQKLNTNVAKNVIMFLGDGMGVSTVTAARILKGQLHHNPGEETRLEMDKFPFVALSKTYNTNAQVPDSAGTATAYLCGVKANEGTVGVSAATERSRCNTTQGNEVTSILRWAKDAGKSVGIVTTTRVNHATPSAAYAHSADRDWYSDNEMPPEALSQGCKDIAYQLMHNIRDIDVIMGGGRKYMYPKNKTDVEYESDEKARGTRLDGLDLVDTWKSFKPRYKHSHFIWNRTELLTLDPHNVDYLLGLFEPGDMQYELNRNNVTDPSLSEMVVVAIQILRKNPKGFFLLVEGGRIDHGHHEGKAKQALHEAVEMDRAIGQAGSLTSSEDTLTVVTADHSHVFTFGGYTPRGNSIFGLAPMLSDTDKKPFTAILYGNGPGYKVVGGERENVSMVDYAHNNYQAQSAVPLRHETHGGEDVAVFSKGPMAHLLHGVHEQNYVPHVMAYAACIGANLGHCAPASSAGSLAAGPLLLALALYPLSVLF
Nature of the experiment: potency against alkaline phosphatase TNAP – biochemical, luminescent, dose response, SAR follow-up (AID 1056).

Another experiment deals with Large T antigen (Simian virus 40, UniProt P03070). In kind it is functional, Betapolyomavirus macacae.
Large T antigen, sequence (P03070 whole entry): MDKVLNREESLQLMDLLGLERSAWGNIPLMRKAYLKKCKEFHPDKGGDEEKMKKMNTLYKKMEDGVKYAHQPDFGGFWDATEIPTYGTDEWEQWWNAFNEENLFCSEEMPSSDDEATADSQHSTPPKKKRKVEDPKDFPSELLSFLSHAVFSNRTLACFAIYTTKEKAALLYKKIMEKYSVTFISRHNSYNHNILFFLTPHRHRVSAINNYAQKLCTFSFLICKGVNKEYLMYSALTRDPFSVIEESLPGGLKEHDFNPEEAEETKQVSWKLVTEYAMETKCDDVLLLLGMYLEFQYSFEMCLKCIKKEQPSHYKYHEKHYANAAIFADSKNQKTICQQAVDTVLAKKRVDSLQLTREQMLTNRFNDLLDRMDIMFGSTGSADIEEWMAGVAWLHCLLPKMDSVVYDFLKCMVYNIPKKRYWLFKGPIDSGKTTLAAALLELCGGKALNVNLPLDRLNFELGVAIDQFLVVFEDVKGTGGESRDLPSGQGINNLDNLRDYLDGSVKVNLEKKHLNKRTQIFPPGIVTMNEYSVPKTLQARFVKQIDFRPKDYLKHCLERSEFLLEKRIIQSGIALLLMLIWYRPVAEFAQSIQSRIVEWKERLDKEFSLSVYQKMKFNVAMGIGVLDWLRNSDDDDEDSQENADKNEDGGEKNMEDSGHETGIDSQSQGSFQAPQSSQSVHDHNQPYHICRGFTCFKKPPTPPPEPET

DNA dC->dU-editing enzyme APOBEC-3G, sequence (Q9HC16 whole entry): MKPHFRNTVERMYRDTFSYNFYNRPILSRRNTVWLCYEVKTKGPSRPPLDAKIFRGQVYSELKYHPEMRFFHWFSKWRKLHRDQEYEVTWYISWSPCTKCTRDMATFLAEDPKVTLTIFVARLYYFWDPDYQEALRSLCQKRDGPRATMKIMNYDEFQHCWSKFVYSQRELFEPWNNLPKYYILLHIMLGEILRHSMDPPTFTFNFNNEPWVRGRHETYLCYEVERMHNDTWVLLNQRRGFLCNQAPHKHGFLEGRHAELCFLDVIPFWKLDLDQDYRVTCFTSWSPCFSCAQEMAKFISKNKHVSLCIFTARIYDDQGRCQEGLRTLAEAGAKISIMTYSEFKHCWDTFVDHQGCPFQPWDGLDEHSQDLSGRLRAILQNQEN
Alkaline phosphatase, placental type, sequence (P05187 whole entry): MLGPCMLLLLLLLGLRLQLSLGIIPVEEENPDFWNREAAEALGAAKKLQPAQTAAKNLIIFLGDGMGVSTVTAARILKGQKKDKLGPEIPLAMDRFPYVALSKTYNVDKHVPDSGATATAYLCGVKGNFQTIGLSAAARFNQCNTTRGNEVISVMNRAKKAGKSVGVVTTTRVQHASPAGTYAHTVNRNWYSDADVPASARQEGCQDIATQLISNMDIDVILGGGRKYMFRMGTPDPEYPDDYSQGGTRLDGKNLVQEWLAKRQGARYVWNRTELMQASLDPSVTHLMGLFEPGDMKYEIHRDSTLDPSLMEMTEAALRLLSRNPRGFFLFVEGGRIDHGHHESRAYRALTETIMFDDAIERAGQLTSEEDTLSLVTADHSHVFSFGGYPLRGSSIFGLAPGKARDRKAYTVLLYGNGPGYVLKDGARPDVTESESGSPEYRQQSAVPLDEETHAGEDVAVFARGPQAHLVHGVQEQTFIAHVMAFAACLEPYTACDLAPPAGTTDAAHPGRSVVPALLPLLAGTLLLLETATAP
DNA dC->dU-editing enzyme APOBEC-3A, sequence (P31941 whole entry): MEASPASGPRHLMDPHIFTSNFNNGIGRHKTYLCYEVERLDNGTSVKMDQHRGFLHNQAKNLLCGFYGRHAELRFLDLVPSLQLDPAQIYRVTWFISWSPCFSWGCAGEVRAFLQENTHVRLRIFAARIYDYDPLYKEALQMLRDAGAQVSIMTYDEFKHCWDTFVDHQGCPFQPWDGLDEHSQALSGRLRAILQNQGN
Ion channel NompC, sequence (Q7T1G6 whole entry): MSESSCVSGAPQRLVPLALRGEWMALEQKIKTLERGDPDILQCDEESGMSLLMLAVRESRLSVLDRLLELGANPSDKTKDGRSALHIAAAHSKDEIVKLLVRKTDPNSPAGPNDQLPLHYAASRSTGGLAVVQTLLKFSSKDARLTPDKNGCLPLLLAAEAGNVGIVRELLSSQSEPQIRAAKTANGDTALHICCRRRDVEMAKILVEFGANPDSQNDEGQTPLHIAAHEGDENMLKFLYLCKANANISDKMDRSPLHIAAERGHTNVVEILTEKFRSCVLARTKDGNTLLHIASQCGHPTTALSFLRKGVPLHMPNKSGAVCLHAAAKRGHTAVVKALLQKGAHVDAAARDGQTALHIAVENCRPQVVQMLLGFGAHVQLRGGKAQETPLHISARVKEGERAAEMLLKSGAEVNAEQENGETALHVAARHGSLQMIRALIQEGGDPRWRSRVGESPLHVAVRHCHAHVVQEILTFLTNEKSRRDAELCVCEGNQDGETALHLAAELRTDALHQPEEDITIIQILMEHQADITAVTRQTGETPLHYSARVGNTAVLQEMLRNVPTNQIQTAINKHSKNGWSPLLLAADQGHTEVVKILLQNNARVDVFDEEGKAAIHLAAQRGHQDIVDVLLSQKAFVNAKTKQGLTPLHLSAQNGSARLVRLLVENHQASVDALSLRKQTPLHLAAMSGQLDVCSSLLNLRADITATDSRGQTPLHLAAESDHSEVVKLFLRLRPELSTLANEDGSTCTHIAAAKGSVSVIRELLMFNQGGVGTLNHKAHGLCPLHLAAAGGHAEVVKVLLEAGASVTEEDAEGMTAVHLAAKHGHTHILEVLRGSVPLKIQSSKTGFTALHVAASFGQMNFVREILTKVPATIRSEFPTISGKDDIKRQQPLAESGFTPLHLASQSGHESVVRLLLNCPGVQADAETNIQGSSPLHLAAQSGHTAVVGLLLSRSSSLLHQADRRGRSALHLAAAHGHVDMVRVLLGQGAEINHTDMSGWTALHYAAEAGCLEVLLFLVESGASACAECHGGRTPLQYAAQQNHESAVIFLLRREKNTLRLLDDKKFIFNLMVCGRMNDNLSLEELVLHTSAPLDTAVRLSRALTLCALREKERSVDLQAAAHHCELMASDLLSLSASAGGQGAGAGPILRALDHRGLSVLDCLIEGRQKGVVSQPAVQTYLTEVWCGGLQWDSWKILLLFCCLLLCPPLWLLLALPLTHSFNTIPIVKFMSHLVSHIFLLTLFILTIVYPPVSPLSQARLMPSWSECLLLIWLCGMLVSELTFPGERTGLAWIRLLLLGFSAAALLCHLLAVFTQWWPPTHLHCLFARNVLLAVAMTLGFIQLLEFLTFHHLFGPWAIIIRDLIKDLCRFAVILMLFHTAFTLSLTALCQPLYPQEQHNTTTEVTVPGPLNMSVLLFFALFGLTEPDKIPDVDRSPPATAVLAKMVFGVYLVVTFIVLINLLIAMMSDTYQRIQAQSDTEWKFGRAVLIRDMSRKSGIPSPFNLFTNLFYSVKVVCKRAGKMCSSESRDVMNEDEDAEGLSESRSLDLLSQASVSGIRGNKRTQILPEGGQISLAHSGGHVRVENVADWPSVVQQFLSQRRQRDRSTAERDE
Luciferin 4-monooxygenase, sequence (P08659 whole entry): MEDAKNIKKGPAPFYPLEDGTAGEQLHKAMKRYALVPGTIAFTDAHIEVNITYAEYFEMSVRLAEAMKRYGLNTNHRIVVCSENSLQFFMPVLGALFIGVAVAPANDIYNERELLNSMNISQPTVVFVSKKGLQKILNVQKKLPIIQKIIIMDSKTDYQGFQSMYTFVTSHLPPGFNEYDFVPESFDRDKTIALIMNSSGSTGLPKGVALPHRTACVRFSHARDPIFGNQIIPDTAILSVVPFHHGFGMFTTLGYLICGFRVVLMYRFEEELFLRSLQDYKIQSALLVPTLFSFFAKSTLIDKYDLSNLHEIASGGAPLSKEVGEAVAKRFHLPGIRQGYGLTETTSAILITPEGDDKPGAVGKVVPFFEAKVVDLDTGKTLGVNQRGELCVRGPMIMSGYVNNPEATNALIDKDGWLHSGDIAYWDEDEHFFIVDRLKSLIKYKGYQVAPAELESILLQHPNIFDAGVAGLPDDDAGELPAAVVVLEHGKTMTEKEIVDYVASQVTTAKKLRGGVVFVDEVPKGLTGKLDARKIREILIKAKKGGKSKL
Glyceraldehyde-3-phosphate dehydrogenase, sequence (P04406 whole entry): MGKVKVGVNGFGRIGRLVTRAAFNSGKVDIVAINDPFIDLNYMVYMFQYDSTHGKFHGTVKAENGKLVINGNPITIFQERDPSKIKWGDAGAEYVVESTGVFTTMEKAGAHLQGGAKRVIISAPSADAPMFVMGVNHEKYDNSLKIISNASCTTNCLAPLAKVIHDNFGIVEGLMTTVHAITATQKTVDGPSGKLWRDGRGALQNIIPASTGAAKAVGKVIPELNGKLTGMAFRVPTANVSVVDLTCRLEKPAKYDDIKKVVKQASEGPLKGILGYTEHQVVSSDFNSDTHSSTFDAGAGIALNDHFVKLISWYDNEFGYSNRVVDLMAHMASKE
DNA damage-inducible transcript 3 protein, sequence (P35639 whole entry): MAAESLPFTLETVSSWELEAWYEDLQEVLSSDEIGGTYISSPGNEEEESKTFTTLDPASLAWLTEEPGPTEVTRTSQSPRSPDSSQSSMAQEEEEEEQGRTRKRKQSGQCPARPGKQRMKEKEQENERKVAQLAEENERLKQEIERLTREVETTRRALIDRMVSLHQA
Cytochrome P450 2C19, sequence (P33261 whole entry): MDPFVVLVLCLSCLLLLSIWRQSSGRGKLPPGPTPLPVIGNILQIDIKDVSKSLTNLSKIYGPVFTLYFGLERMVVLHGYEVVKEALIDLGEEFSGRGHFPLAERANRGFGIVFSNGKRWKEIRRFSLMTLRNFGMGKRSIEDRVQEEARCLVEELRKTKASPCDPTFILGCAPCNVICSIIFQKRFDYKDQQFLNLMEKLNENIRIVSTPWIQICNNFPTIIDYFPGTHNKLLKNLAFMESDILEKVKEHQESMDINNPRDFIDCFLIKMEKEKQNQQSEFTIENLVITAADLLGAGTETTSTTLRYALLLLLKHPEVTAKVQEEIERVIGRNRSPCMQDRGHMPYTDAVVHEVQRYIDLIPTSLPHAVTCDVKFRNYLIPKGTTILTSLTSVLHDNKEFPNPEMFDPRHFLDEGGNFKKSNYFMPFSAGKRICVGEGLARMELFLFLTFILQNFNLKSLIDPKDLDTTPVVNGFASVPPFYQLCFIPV

On to `COc1cc(CCCN2C(S)=NC[C@@H]2CC2CCCCC2)cc(OC)c1OC`, for which the EC50 on Troponin, cardiac muscle was > 71.5 µM (inactive).
Turning to `Cc1ccc(C(=O)Nc2cc(Cl)ccc2-n2cncn2)o1`, the figures for the IC50 in experiment [1] and in [2] were 85 µM (active) and 20.5 µM (active), respectively.
Turning to `Cc1cc(O)nc(SCC(=O)Nc2ccccc2C)n1`, the EC50 was > 29.9 µM (inactive) on Ion channel NompC and > 29.9 µM (not active) on Mucolipin-3.
Turning to `COCCn1c(C)cc(C2=NN=C(Nc3ccccc3F)SC2)c1C`, the EC50 in experiment [3] was 1.69 µM (active); in the experiment with HT-1080, > 50 µM (not active); in [4] it was 8.18 µM (active); in experiment [5], 1.3 µM (active); in experiment [6] it was < 0.1 µM (active); in “cells”, > 12 µM (not active). The EC50 in experiment [8] is 2.67 µM (active); in [9], < 0.1 µM (active); in experiment [10], < 0.16 µM (active). The IC50 in [7] is > 80 µM (inactive); in [11] it was 1.33 µM (active).
Take `C/C(=C1/C(=O)N(c2ccc([N+](=O)[O-])cc2)N=C1c1ccccc1)N(C)C`: the EC50 on Ion channel NompC was 3.71 µM (active); on Mucolipin-3, 5.21 µM (active). For the same molecule, the CC50 in [12] was 10.6 µM (active).
For the molecule `COc1ccc(C)cc1NC(=O)CCCN1C(=O)NC(C)(C)C1=O`, the results for the IC50 in experiment [1] and in [2] were 11 µM (active) and 11.9 µM (active), respectively.
With `Cc1cccc(OCC(=O)N/N=C\C=C\c2ccc3c(c2)OCO3)c1C`, in experiment [13], the “Absolute IC50 (CHOP)” value came to 10 µM. The IC50 in experiment [14] is > 111 µM (not active); in experiment [15], 5.84 µM (active). Also, the AC50 on Cytochrome P450 2C19 is 10 µM (inconclusive).
Take `Cc1n[nH]c2c1C(=O)CC(C)(C)C2`: the IC50 in experiment [16] is > 100 µM (inactive); in experiment [17], > 100 µM (not active); in experiment [18], 19.9 µM (active).
`COCc1cc(C)nc(SCC(=O)c2ccc(O)c(O)c2)c1C#N`: the IC50 in experiment [16] is 2.16 µM (active); at Large T antigen, 3.71 µM (active).
